Results published in ChEMBL document CHEMBL1909638, “Amide isosteres in structure-activity studies of antibacterial minor groove binders” (2011).
Converted amounts (≈) assume the structure as drawn.

Tests used:
[1] = system: Aspergillus niger; test: Antifungal activity against Aspergillus niger by resazurine microtiter assay; assay type: functional
[2] = system: Staphylococcus aureus; test: Antibacterial activity against Staphylococcus aureus isolate 2 by resazurine microtiter assay; assay type: functional
[3] = system: Staphylococcus aureus; test: Antibacterial activity against Staphylococcus aureus isolate 1 by resazurine microtiter assay; assay type: functional
[4] = system: Enterococcus faecalis; test: Antibacterial activity against Streptococcus faecalis by resazurine microtiter assay; assay type: functional
[5] = system: Nucleic Acid; test: Binding affinity to 5'-GCGATATATGCG-3' DNA sequence in PBS buffer of pH 7.4 assessed as increase in melting temperature by UV-VIS spectrophotometric analysis; assay type: nucleic-acid assay
[6] = system: Nucleic Acid; test: Binding affinity to 5'-GCGATATATGCG-3' DNA sequence in PBS buffer of pH 7.4 assessed as change in melting temperature by UV-VIS spectrophotometric analysis; assay type: nucleic-acid assay
[7] = system: Candida albicans; test: Antifungal activity against Candida albicans by resazurine microtiter assay; assay type: functional
[8] = system: Staphylococcus aureus; test: Antibacterial activity against Staphylococcus aureus at 200 uM by resazurine microtiter assay; assay type: functional; parameters: scale not given here
[9] = system: Mycolicibacterium aurum; test: Antimycobacterial activity against Mycobacterium aurum at 37 degC using Mueller-Hinton broth by resazurine microtiter assay; assay type: functional
[10] = system: Staphylococcus aureus; test: Antibacterial activity against Staphylococcus aureus by resazurine microtiter assay; assay type: functional

Row | Compound | ΔTm [5] [°C] | ΔTm [6] [°C] | Activity [8] [%] | MIC [9] [µM] | MIC [10] [µM] | also measured
1 | Cn1cc(NC(=O)c2cc(NC(=O)c3ccc(/C=C/c4cnc5ccccc5c4)cc3)cn2C)cc1C(=O)NCCN1CCOCC1 [MGB-BP-3] | 19 | 18 | – | – | – | MIC [1]: 50 µM (≈ 31.6 µg/mL); MIC [2]: 12.5 µM (≈ 7.9 µg/mL); MIC [3]: 3.1 µM (≈ 1.96 µg/mL); MIC [4]: 25 µM (≈ 15.8 µg/mL); MIC [7]: 25 µM (≈ 15.8 µg/mL)
2 | CCC(C)n1cc(NC(=O)c2ccc(/C=C/c3ccc(OC)cc3)cn2)cc1C(=O)Nc1cc(C(=O)NCCN2CCOCC2)n(C)c1 (stereo not given) | 16 | – | 3.2 | 31 (≈ 20.3 µg/mL) | 8 (≈ 5.23 µg/mL) | –
3 | CCC(C)n1cc(NC(=O)c2cc(NC(=O)c3ccc(/C=C/c4cnc5ccccc5c4)cc3)cn2C)cc1C(=O)NCCN1CCOCC1 (stereo not given) | 0 | – | 0.3 | – | – | –
4 | COc1cccc(/N=N/c2ccc(C(=O)Nc3cc(C(=O)Nc4cc(C(=O)NCCN5CCOCC5)n(C)c4)n(C)c3)cc2)c1 | – | 1 | – | – | – | –
5 | COc1cccc(C(=O)Nc2ccc(C(=O)Nc3cc(C(=O)Nc4cc(C(=O)NCCN5CCOCC5)n(C)c4)n(C)c3)cc2)c1 | – | 10 | – | – | – | –
6 | CN(C)c1ccc(C(=O)Nc2ccc(C(=O)Nc3cc(C(=O)Nc4cc(C(=O)NCCN5CCOCC5)n(C)c4)n(C)c3)cc2)cc1 | – | 18 | – | – | – | –
7 | CC(C)n1cc(NC(=O)c2cc(NC(=O)c3ccc(/C=C/c4cnc5ccccc5c4)cc3)cn2C)cc1C(=O)NCCN1CCOCC1 | 10 | – | 0.8 | 2 (≈ 1.32 µg/mL) | < 1 | –
8 | COc1ccc(/C=C/c2ccc(C(=O)Nc3cc(C(=O)Nc4cc(C(=O)NCCN5CCOCC5)n(C(C)C)c4)n(C)c3)nc2)cc1 | 16 | – | 8.5 | 8 (≈ 5.12 µg/mL) | 4 (≈ 2.56 µg/mL) | –
9 | COc1ccc(/C=C/c2ccc(C(=O)Nc3cc(C(=O)Nc4cc(C(=O)NCCN5CCOCC5)n(C)c4)n(C(C)C)c3)nc2)cc1 | 19 | – | 6.7 | 8 (≈ 5.12 µg/mL) | 16 (≈ 10.2 µg/mL) | –
10 | CCC(C)n1cc(NC(=O)c2ccc(/C=C/c3cnc4ccccc4c3)cc2)cc1C(=O)Nc1cc(C(=O)NCCN2CCOCC2)n(C)c1 (stereo not given) | 15 | – | 2.9 | 2 (≈ 1.35 µg/mL) | < 1 | –
11 | Cn1cc(NC(=O)c2cc(NC(=O)c3ccc(NC(=O)c4cnc5ccccc5c4)cc3)cn2C)cc1C(=O)NCCN1CCOCC1 | – | 17 | – | – | – | –
12 | COc1cccc(/C=C/c2ccc(C(=O)Nc3cc(C(=O)Nc4cc(C(=O)NCCN5CCOCC5)n(C)c4)n(C)c3)cc2)c1 | – | – | – | – | – | MIC [1]: 50 µM (≈ 30.5 µg/mL); MIC [2]: 25 µM (≈ 15.3 µg/mL); MIC [3]: 12.5 µM (≈ 7.63 µg/mL); MIC [4]: 6.25 µM (≈ 3.82 µg/mL); MIC [7]: 100 µM (≈ 61.1 µg/mL)
13 | CC(C)n1cc(NC(=O)c2ccc(/C=C/c3cnc4ccccc4c3)cc2)cc1C(=O)Nc1cc(C(=O)NCCN2CCOCC2)n(C)c1 | 18 | – | 2.3 | 2 (≈ 1.32 µg/mL) | < 1 | –
14 | Cn1cc(NC(=O)c2cc(NC(=O)c3ccc(/N=N/c4cnc5ccccc5c4)cc3)cn2C)cc1C(=O)NCCN1CCOCC1 | – | 17 | – | – | – | MIC [1]: 50 µM (≈ 31.7 µg/mL); MIC [2]: > 100 µM; MIC [3]: > 100 µM; MIC [4]: > 100 µM; MIC [7]: 25 µM (≈ 15.8 µg/mL)
15 | CN(C)c1ccc(/C=C/c2ccc(C(=O)Nc3cc(C(=O)Nc4cc(C(=O)NCCN5CCOCC5)n(C)c4)n(C)c3)cc2)cc1 | – | 2 | – | – | – | MIC [1]: > 100 µM; MIC [2]: > 100 µM; MIC [3]: > 100 µM; MIC [4]: > 100 µM; MIC [7]: 100 µM (≈ 62.4 µg/mL)
16 | COc1ccc(/C=C/c2ccc(C(=O)Nc3cc(C(=O)Nc4cc(C(=O)NCCN5CCOCC5)n(C)c4)n(C)c3)nc2)cc1 | 16 | – | – | – | – | –
17 | CN(C)c1ccc(/N=N/c2ccc(C(=O)Nc3cc(C(=O)Nc4cc(C(=O)NCCN5CCOCC5)n(C)c4)n(C)c3)cc2)cc1 | – | 8 | – | – | – | –
18 | CCC(C)n1cc(NC(=O)c2cc(NC(=O)c3ccc(/C=C/c4ccc(OC)cc4)cn3)cn2C)cc1C(=O)NCCN1CCOCC1 (stereo not given) | 13 | – | 2.8 | 16 (≈ 10.5 µg/mL) | 16 (≈ 10.5 µg/mL) | –
